# Measured values: patent US20130281313A1, “PROGNOSTIC AND/OR PREDICTIVE BIOMARKERS AND BIOLOGICAL APPLICATIONS THEREOF” (INSTITUT GUSTAVE ROUSSY, priority 2010, published 2013)
# Legend:
# Type in all cases: cell-based, human
# A549 cells [1] = assay: Targeted metabolomic studies (ATP, ADP, AMP, GSH; RRLC-MS); settings: A549 cells incubated for 24 h with 5 mM GSH
# Experimental: A549 cells were left untreated or treated with 25 μM CDDP alone or in combination with 5 mM PN, for 24 h. Thereafter, both attached (living) and detached (dying/dead) cells were harvested, washed once in cold PBS and pelleted (800 G for 5 min). Pellets were resuspended in 200 μL deionized water, briefly vortexed and sonicated. 800 μl ice-cold methanol was added, and samples were kept in ice for 15 min, vortexed and centrifuged at 13,000 G for 10 min at 4° C. Supernatants were dried in a SpeedVac drier (Thermo Scientific-Pierce) and stored at −80° C. until analysis. Pellets were resuspended in 150 μL 98:2 water/acetonitrile immediately before analytical determinations (see below).
# ATP, ADP, AMP and GSH were quantified on a Rapid Resolution Liquid Chromatography (RRLC) 1200SL system coupled to a 6410 Triple Quadripole (QQQ) mass spectrometer (both from Agilent Technologies). For nucleotides, RRLC was performed on 150×2.1 mm, 3.5 μM Eclipse Plus columns (Agilent Technologies) with water containing 4 mM dimethylhexylamine (DMHA) plus 0.01% (v/v) acetic acid in channel A and acetonitrile in channel B, in gradient mode at a flow rate of 0.2 mL/min: t=0 min 2% B; t=9 min 32% B; t=10 min 95% B; T=12 min 95% B, re-equilibration time=6 min. Mass spectrometry was performed in positive electrospray ionization mode at +4 kV on the QQQ system operating in MRM mode. MRM transitions were optimized with direct infusions of ATP, ADP, and AMP standards with direct infusion, and four transitions were recorded for each compounds. Parent ions were adduct ions of DMHA and also proton adducts:
# For GSH, RRLC was performed on a 150×2.1 mm, 3.5 μM Stable Bond AQ column (Agilent Technologies) with water containing 0.2% (v/v) acetic acid in channel A and methanol in channel B, in gradient mode at a flow rate of 0.3 mL/min: t=0 min 2% B; t=8 min 95% B; t=9 min 95% B; re-equilibration time=6 min. Mass spectrometry was performed as above. MRM transitions were optimized with direct infusion of GSH standards.
# Data collection and analysis were performed with the MassHunter software (Agilent Technologies).
# A549 cells [2] = assay: Cytofluorometric assessment of cell death (DiOC6(3)/PI co-staining); settings: A549 cells; for apoptosis-inducing effect of CDDP (DiOC6(3)/PI co-staining or DNA loss, sub-G1 peak): CDDP irrespective of the presence of PN
# Experimental: Unless otherwise specified, chemicals were purchased from Sigma-Aldrich (St. Louis, USA), culture media and supplements for cell culture from Gibco-Invitrogen (Carlsbad, USA) and plasticware from Corning (Corning, USA). […] Orlistat (Xenical®) was obtained from Roche (Basel, Switzerland). […] Undissolved material was removed by two sequential rounds of centrifugation at 12,000 G (5 min, room temperature, RT), supernatants were collected and stored at −80° C. under protection from light until use. In low-throughput experiments, all cell lines were treated with 2.5 mM pyridoxine (PN), exception made for A549 cells that received 5 mM PN.
# To avoid depleting the siRNA library of selected sequences, siRNAs for validation experiments were purchased as custom molecules from Sigma-Aldrich. For low-throughput experiments, (see below for the transfection protocols employed in the siRNA screen), siRNA were transfected in A549 cells with Oligofectamine™ reagent (Invitrogen), following the manufacturer's instructions. Transfection with a non-targeting siRNA (siUNR) was employed as a negative control condition. Forty-eight hours after transfection, siRNA-mediated target downregulation was assessed by immunoblotting (see below).
# All cytofluorometric determinations were carried out a FACSCalibur or a FACScan cytofluorometer (BD Biosciences, San Jose, USA) equipped with a 70 μm nozzle.
# (§1) First line statistical analysis of cytofluorometric results was performed by using the CellQuest™ software (BD Biosciences), by gating on the events characterized by normal forward scatter and side scatter parameters. Apoptosis- and cell cycle-related data were further analyzed with Microsoft Excel (Microsoft Co., Redmond, USA) and statistical significance was assessed by means of two-tailed Student's t test (p<0.05).
# A549 cells [3] = assay: Intracellular levels of CDDP in cell lysates; settings: 24 h, 25 μM CDDP alone or with PN and/or GSH, normalized to protein content
# Experimental: (E,F) Intracellular levels of CDDP (normalized to protein content) in lysates from untransfected A549 cells (D) or A549 cells transfected with a PDXK-targeting siRNA (E), treated for 24 h with 25 μM CDDP alone or in combination with PN and/or GSH. Mean±SEM (n=6). *=p<0.05 (Studen's t test), as compared to untransfected (D) or siUNR transfected (E) cells treated with CDDP only. n.s.=non significant (Student's t test), as compared to cells treated with the same concentration of GSH (D) or to siPDXK-transfected cells treated with CDDP only (E).
# A549 cells [4] = assay: Cell cycle distribution (PI staining, cytofluorometry); settings: 10 μM CDDP alone or with PN and/or NAC
# Experimental: To measure apoptosis-related parameters, living cells were labeled for 30 min at +37° C. with 40 nM 3,3′dihexyloxalocarbocyanine iodide (DiOC6(3), from Molecular Probes-Invitrogen, Eugene, USA), which quantifies the mitochondrial transmembrane potential (Δψm), plus 1 μg/mL propidium iodide (PI), which only accumulates in cells with ruptured plasma membrane {Galluzzi, 2009; Galluzzi, 2008; Galluzzi, 2007}. To assess cell cycle distribution, cells were collected, fixed by gentle vortexing in ice-cold 80% (v/v) ethanol (Carlo Erba Reagents, Milano, Italy) and stained with 50 μg/mL PI in 0.1% (w/v) D-glucose in PBS supplemented with 1 μg/mL (w/v) RNAse A {Mondragon, 2009; Mouhamad, 2007}. All cytofluorometric determinations were carried out a FACSCalibur or a FACScan cytofluorometer (BD Biosciences, San Jose, USA) equipped with a 70 μm nozzle.
# as §1
SMILES,intracellular GSH levels upon extracellular GSH (A549 cells [1]),protection against the cytotoxic effect of CDDP plus PN (A549 cells [2]; 25 or 75 μM CDDP plus PN),"apoptosis-inducing effect of CDDP (DiOC6(3)/PI co-staining or DNA loss, sub-G1 peak) (A549 cells [2])",intracellular accumulation of CDDP (A549 cells [3]),cell cycle arrest induced by CDDP (A549 cells [4]),"protection against CDDP, COX inhibition with sodium azide combined with TP53 inhibition with cyclic pifithrin-α (A549 cells [2]; followed by CDDP, DiOC6(3)/PI co-staining)"
"N[C@@H](CCC(=O)N[C@@H](CS)C(=O)NCC(=O)O)C(=O)O [GSH, glutathione]",had no significant impact on intracellular GSH levels,protected cells against the cytotoxic effect of CDDP plus PN,blocked the apoptosis-inducing effect of CDDP,strongly inhibited the accumulation of CDDP within the cells,,
"CC(=O)N[C@@H](CS)C(=O)O [NAC, N-acetylcysteine]",,,blocked the apoptosis-inducing effect of CDDP,,failed to reverse the cell cycle arrest induced by CDDP,
Cc1ccc(-c2cn3c4c(sc3n2)CCCC4)cc1 [cyclic pifithrin-α],,,,,,synergistic protection against CDDP
